Measurements as given in PMC12085399, “Quantitative in vitro-to-in vivo extrapolation of human adrenergic and trace amine-associated receptor 1 potencies of pre-workout supplement ingredients using physiologically based kinetic modelling-based reverse dosimetry” (Archives of Toxicology, 2025).
Read-outs that look alike come from different tables or passages of the source.

Columns and labels:
ADRα2A = assay: PBK modelling-based reverse dosimetry of in vitro EC50 to ED50, ADRα2A; conditions: predicted human oral ED50 from in vitro EC50 (Pinckaers et al. [2024]) and modelled Cmax plasma venous
Source text: (§1) The in vitro effect concentrations (EC50), for activation of the α1A, α1B, α1D, α2A, α2B, β1 and β2 ADR activation and the activation of TAAR1, were obtained from our previous study (Pinckaers et al. [2024]).

[1] = In vitro hepatic clearance by human liver S9 (compound depletion); assay type: in vitro ADME; conditions: for Predicted intrinsic hepatic metabolic clearance CLmet: CLint,u scaled to a whole liver, 121 mg HLS9/g liver; for Predicted intrinsic hepatic metabolic clearance CLmet / k el at 1 µM / microsomal CLint at 1 µM: human; for metabolism in incubations without co-factor mix: HLS9 without co-factor mix; for k el at 1 µM: pH 7.4
Experimental: In vitro intrinsic hepatic clearance (CLint) values of the phenethylamine analogues were determined in experiments with pooled human liver S9 (HLS9; Corning, Woburn, MA, USA and Gibco, USA), by measuring the rate of compound depletion. Stocks of 1 mM PEA compounds were prepared in DMSO and stocks of 10 mg/mL alamethicin were prepared in methanol. The final incubation mixtures consisted of 1 µM of PEA compound (0.1% DMSO) in 100 mM potassium phosphate buffer with 5 mM magnesium chloride (pH 7.4) supplemented with 0.025 mg/mL alamethicin (0.25% methanol) and 0.1–2 mg/mL HLS9. […] Incubation mixtures were first pre-incubated at 37 °C in a shaking incubator at 300 rpm for 5 min. After 5 min, the reaction was initiated by adding a co-factor mix in supplemented buffer with final concentrations of 3 mM nicotinamide adenine dinucleotide phosphate (NADPH; for oxidation, reduction and hydrolysis), 5 mM uridine diphosphate glucuronic acid (UDPGA; for glucuronidation), 0.2 mM adenosine 3’-phosphate 5’-phosphosulfate lithium salt hydrate (PAPS; for sulfation) and 0.2 mM S-(5’-Adenosyl)-L-methionine p-toluenesulfonate salt (SAM; for methylation). The final incubation volume was 100 µL and incubations were performed in 1.5 mL Safe-Lock Eppendorf tubes (Eppendorf) in a shaking incubator (300 rpm) at 37 °C (Eppendorf Thermomixer). Incubations were terminated by adding 100 µL ice-cold acetonitrile after, 0, 2.5, 5, 10, 20, 40 and 60 min. Then, samples were vortexed, put on ice and stored at -20 °C until the day of the LC–MS/MS analysis. Controls of incubation mixtures without HLS9 or mixtures without co-factors were also included. Two independent experiments, both in duplicate, were performed on different days. On the day of the LC–MS/MS analysis, samples were thawed and centrifuged at 15,000 rpm for 10 min. The supernatant was collected in glass insert vials for LC injection (BGB Analytik, Harderwijk, The Netherlands). Details on the methods of the LC–MS/MS analysis are described in Sect. "LC–MS/MS analysis". After determining the PEA (analogue) amount at the different time points, the CLint was calculated. The natural logarithm of compound concentrations was plotted against time and the slope of this curve represented the elimination rate constant k (in 1/min). The half-life (t1/2 in minutes) was calculated by: ln (2)/k (in 1/min). The volume of incubation (V) in µL/mg protein was determined by: 1000 / HLS9 concentration (in mg/mL). Finally, CLint could be calculated by: CLintμL/min/mg protein=VμL/mg protein∗ln2/t1/2min.
The fraction unbound in these in vitro liver clearance incubations was calculated with the method of (Hallifax and Houston [2006]) in which unspecific binding in HLS9 incubations was assumed to be the same as in liver microsomal incubations. The in vitro obtained HLS9 CLint values were corrected for protein binding in the HLS9 incubation and were scaled to a whole liver by using a scaling factor of 121 mg HLS9/g liver (Houston and Galetin [2008]).

ADRβ2 = assay: PBK modelling-based reverse dosimetry of in vitro EC50 to ED50, ADRβ2; conditions: predicted human oral ED50 from in vitro EC50 (Pinckaers et al. [2024]) and modelled Cmax plasma venous
Source text: as §1

ADRα1B = assay: PBK modelling-based reverse dosimetry of in vitro EC50 to ED50, ADRα1B; conditions: predicted human oral ED50 from in vitro EC50 (Pinckaers et al. [2024]) and modelled Cmax plasma venous
Source text: as §1

[2] = full reaction mix (HLS9 and co-factor mix), 1 µM, HLS9 concentration per compound (0.10-2 mg/mL), read-out: elimination rate constant k (converted)
[3] = s9, pH 7.4, CLint app corrected for unspecific protein (HLS9) binding, read-out: In vitro CLint,u
[4] = s9, pH 7.4, human liver S9 with co-factor mix (NADPH, UDPGA, PAPS, SAM), 1 µM, read-out: In vitro CLint app

SMILES	ADRα2A ED50 (ADRα2A)	Predicted intrinsic hepatic metabolic clearance CLmet [1]	metabolism in incubations without co-factor mix [1]	k el at 1 µM [1, 2]	microsomal CLint at 1 µM [1, 3]	microsomal CLint at 1 µM [1, 4]	ADRβ2 ED50 (ADRβ2)	ADRα1B ED50 (ADRα1B)	k el at 1 µM [1]
CN(C)CCc1ccccc1 [Dimethylphenethylamine, N,N-dimethylphenethylamine]	– (compounds with a dash (-) did not activate the receptors in vitro at concentrations ≤ 300 µM)	245 L/h	metabolized in incubations without co-factor mix	0.000667 s⁻¹	23 µL/min/mg	20 µL/min/mg	– (compounds with a dash (-) did not activate the receptors in vitro at concentrations ≤ 300 µM)	4.07 mg/kg bw	–
CNCC(O)c1ccccc1 (stereo not shown) [Halostachine, halostachine]	– (compounds with a dash (-) did not activate the receptors in vitro at concentrations ≤ 300 µM)	416 L/h	metabolized in incubations without co-factor mix	0.000312 s⁻¹	39 µL/min/mg	37.4 µL/min/mg	– (compounds with a dash (-) did not activate the receptors in vitro at concentrations ≤ 300 µM)	1.32 mg/kg bw	–
Oc1ccc(CC2NCCc3cc(O)c(O)cc32)cc1 (stereo not shown) [Higenamine, higenamine]	– (compounds with a dash (-) did not activate the receptors in vitro at concentrations ≤ 300 µM)	261 L/h	–	0.000367 s⁻¹	24.4 µL/min/mg	22 µL/min/mg	2.92 mg/kg bw	– (compounds with a dash (-) did not activate the receptors in vitro at concentrations ≤ 300 µM)	–
CN(C)CCc1ccc(O)cc1 [Hordenine, hordenine]	234 mg/kg bw	27.0 L/h	–	7.33e-05 s⁻¹	2.53 µL/min/mg	2.2 µL/min/mg	– (compounds with a dash (-) did not activate the receptors in vitro at concentrations ≤ 300 µM)	1.90 mg/kg bw	–
CC(C)NCC(O)c1ccc(O)cc1 (stereo not shown) [Isopropyloctopamine, isopropyloctopamine]	– (compounds with a dash (-) did not activate the receptors in vitro at concentrations ≤ 300 µM)	27.3 L/h	–	–	2.56 µL/min/mg	2.15 µL/min/mg	– (compounds with a dash (-) did not activate the receptors in vitro at concentrations ≤ 300 µM)	– (compounds with a dash (-) did not activate the receptors in vitro at concentrations ≤ 300 µM)	7.17e-05 s⁻¹
CNC(C)C(O)c1ccc(O)cc1 (stereo not shown) [Methylsynephrine]	– (compounds with a dash (-) did not activate the receptors in vitro at concentrations ≤ 300 µM)	19.7 L/h	–	4.97e-05 s⁻¹	1.84 µL/min/mg	1.49 µL/min/mg	– (compounds with a dash (-) did not activate the receptors in vitro at concentrations ≤ 300 µM)	– (compounds with a dash (-) did not activate the receptors in vitro at concentrations ≤ 300 µM)	–
NCCc1ccccc1 [Phenethylamine, phenethylamine]	– (compounds with a dash (-) did not activate the receptors in vitro at concentrations ≤ 300 µM)	2598 L/h	metabolized in incubations without co-factor mix	0.000402 s⁻¹	243 µL/min/mg	241 µL/min/mg	– (compounds with a dash (-) did not activate the receptors in vitro at concentrations ≤ 300 µM)	– (compounds with a dash (-) did not activate the receptors in vitro at concentrations ≤ 300 µM)	–
NCCc1ccc(O)cc1 [Tyramine, tyramine]	– (compounds with a dash (-) did not activate the receptors in vitro at concentrations ≤ 300 µM)	841 L/h	metabolized in incubations without co-factor mix	0.000322 s⁻¹	78.8 µL/min/mg	77.2 µL/min/mg	– (compounds with a dash (-) did not activate the receptors in vitro at concentrations ≤ 300 µM)	– (compounds with a dash (-) did not activate the receptors in vitro at concentrations ≤ 300 µM)	–
CNCC(O)c1ccc(O)cc1 (stereo not shown) [p-Synephrine, Synephrine]	139 mg/kg bw	140 L/h	metabolized in incubations without co-factor mix	0.000198 s⁻¹	13.1 µL/min/mg	11.9 µL/min/mg	– (compounds with a dash (-) did not activate the receptors in vitro at concentrations ≤ 300 µM)	0.914 mg/kg bw	–
CC(CN)c1ccccc1 (stereo not drawn) [β-Methylphenethylamine, β-methylphenethylamine]	– (compounds with a dash (-) did not activate the receptors in vitro at concentrations ≤ 300 µM)	139 L/h	metabolized in incubations without co-factor mix	0.000403 s⁻¹	13 µL/min/mg	12.1 µL/min/mg	– (compounds with a dash (-) did not activate the receptors in vitro at concentrations ≤ 300 µM)	– (compounds with a dash (-) did not activate the receptors in vitro at concentrations ≤ 300 µM)	–
